Measurements published in patent publication US12577206B2 (BRISTOL-MYERS SQUIBB COMPANY, priority 2020, dated 2026).
pEC50: −log10 of the molar value.

Experiments:
human FPR1 = molecular target: T1, human FPR1 (Homo sapiens, UniProt P21462); experiment: FPR1 cyclic adenosine monophosphate (cAMP) assay; format: cell-based; conditions: CHO cells overexpressing human FPR1; forskolin 10 μM; inhibition of cAMP production; HTRF; read-out: hFPR1 cAMP2 EC50
T1 sequence (P21462 1-350): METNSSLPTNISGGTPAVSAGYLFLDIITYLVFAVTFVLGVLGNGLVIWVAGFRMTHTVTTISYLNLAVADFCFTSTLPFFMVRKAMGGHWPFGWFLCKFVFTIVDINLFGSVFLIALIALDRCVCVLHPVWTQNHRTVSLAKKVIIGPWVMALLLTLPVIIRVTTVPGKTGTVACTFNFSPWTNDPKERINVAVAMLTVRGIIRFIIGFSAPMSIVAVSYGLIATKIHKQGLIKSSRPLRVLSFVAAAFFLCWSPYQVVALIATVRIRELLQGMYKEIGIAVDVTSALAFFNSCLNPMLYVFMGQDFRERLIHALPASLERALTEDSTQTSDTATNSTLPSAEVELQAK
Method in brief: (§1)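 CHO cells overexpressing human FPR1 (4,000/well) or FPR2 (2,000/well) were incubated 30 min at room temperature with compound (0.020 nM to 100 μM, 1% DMSO), IBMX 200 μM, and forskolin at 10 μM (FPR1) or 5 μM (FPR2), all final. HTRF cAMP read-out; inhibition fitted by 4-parameter logistic equation.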

human FPR2 = molecular target: T2, human FPR2 (Homo sapiens, UniProt P25090); experiment: FPR2 cyclic adenosine monophosphate (cAMP) assay; format: cell-based; conditions: CHO cells overexpressing human FPR2; forskolin 5 μM; inhibition of cAMP production; HTRF; read-out: hFPR2 cAMP2 EC50
T2 sequence (P25090 1-351): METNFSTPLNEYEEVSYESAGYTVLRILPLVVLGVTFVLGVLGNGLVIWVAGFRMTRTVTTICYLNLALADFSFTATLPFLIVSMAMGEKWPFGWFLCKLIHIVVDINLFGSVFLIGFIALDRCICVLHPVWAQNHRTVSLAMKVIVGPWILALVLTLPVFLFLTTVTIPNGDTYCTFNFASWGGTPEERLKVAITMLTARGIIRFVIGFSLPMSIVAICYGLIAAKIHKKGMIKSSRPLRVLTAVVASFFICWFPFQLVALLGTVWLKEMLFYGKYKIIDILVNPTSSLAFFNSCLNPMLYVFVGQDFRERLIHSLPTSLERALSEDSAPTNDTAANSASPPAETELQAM
Method in brief: as §1

| Compound | pEC50 (human FPR1) | pEC50 (human FPR2) |
| --- | --- | --- |
| COc1cc(F)c(-c2c(NC(=O)c3ccc(OC(F)F)cc3)c(=O)n(-c3nc(C4CCN(S(C)(=O)=O)CC4)ccc3Cl)n2C)c(F)c1 [Example 316, N-{2-[3-chloro-6-(1-methanesulfonylpiperidin-4-yl)pyridin-2-yl]-5-(2,6-difluoro-4-methoxyphenyl)-1-methyl-3-oxo-2,3-dihydro-1H-pyrazol-4-yl}-4-(difluoromethoxy)benzamide] | < 5.30 | 8.70 |
| Cn1c(-c2ccc(OC(F)F)cc2)c(NC(=O)c2ccc(OC(F)F)cc2)c(=O)n1-c1nc(Cl)ccc1C(F)(F)F [Example 317, N-{2-[6-chloro-3-(trifluoromethyl)pyridin-2-yl]-5-[4-(difluoromethoxy)phenyl]-1-methyl-3-oxo-2,3-dihydro-1H-pyrazol-4-yl}-4-(difluoromethoxy)benzamide] | 5.74 | 7.85 |
| COc1cc(F)c(-c2c(NC(=O)c3ccc(OC(F)F)cc3)c(=O)n(-c3nc(S(C)(=O)=O)ccc3C(F)(F)F)n2C)c(F)c1 [Example 318, N-[5-(2,6-difluoro-4-methoxyphenyl)-2-[6-methanesulfonyl-3-(trifluoromethyl)pyridin-2-yl]-1-methyl-3-oxo-2,3-dihydro-1H-pyrazol-4-yl]-4-(difluoromethoxy)benzamide] | < 5.00 | 8.15 |
| COc1cc(F)c(-c2c(NC(=O)c3ccc(OC(F)F)cc3)c(=O)n(-c3nc(C4CCN(S(C)(=O)=O)CC4)ccc3C(F)(F)F)n2C)c(F)c1 [Example 319] | < 5.00 | 8.70 |
| COc1cc(F)c(-c2c(NC(=O)c3ccc(OC(F)F)cc3)c(=O)n(-c3cc(OC4CCOC4)cc(C)n3)n2C)c(F)c1 (stereo not drawn) [Example 320, N-(5-(2,6-Difluoro-4-methoxyphenyl)-1-methyl-2-(6-methyl-4-((tetrahydrofuran-3-yl)oxy)pyridin-2-yl)-3-oxo-2,3-dihydro-1H-pyrazol-4-yl)-4-(difluoromethoxy)benzamide] | 6.00 | 8.70 |
| COc1cc(F)c(-c2c(NC(=O)c3ccc(OC(F)F)cc3)c(=O)n(-c3cc(OC4CCOC4)cc(C)n3)n2C)c(F)c1 (stereo not drawn) [Example 321, N-(5-(2,6-Difluoro-4-methoxyphenyl)-1-methyl-2-(6-methyl-4-((tetrahydrofuran-3-yl)oxy)pyridin-2-yl)-3-oxo-2,3-dihydro-1H-pyrazol-4-yl)-4-(difluoromethoxy)benzamide] | 6.41 | 8.40 |
| COc1cc(OCC(C)(C)O)nc(-n2c(=O)c(NC(=O)c3ccc(OC(F)F)cc3)c(-c3c(F)cc(OC)cc3F)n2C)c1 [Example 322] | < 5.00 | 8.15 |
| COc1cc(F)c(-c2c(NC(=O)c3ccc(OC(F)F)cc3)c(=O)n(-c3cc(C4CCNCC4)cc(C)n3)n2C)c(F)c1 [Example 323, N-(5-(2,6-Difluoro-4-methoxyphenyl)-1-methyl-2-(6-methyl-4-(piperidin-4-yl)pyridin-2-yl)-3-oxo-2,3-dihydro-1H-pyrazol-4-yl)-4-(difluoromethoxy)benzamide] | < 5.00 | 7.85 |
| COc1cc(F)c(-c2c(NC(=O)c3ccc(OC(F)F)cc3)c(=O)n(-c3cc(C4CCN(C)CC4)cc(C)n3)n2C)c(F)c1 [Example 324, N-(5-(2,6-Difluoro-4-methoxyphenyl)-1-methyl-2-(6-methyl-4-(1-methylpiperidin-4-yl)pyridin-2-yl)-3-oxo-2,3-dihydro-1H-pyrazol-4-yl)-4-(difluoromethoxy)benzamide] | < 5.00 | 8.30 |
| COc1cc(OCC(C)(CO)CO)nc(-n2c(=O)c(NC(=O)c3ccc(OC(F)F)cc3)c(-c3c(F)cc(OC)cc3F)n2C)c1 [Example 325, N-(5-(2,6-Difluoro-4-methoxyphenyl)-2-(6-(3-hydroxy-2-(hydroxymethyl)-2-methylpropoxy)-4-methoxypyridin-2-yl)-1-methyl-3-oxo-2,3-dihydro-1H-pyrazol-4-yl)-4-(difluoromethoxy)benzamide] | < 5.00 | 8.52 |
| COc1cc(O)nc(-n2c(=O)c(NC(=O)c3ccc(OC(F)F)cc3)c(-c3c(F)cc(OC)cc3F)n2C)c1 [Example 326, N-(5-(2,6-Difluoro-4-methoxyphenyl)-2-(6-hydroxy-4-methoxypyridin-2-yl)-1-methyl-3-oxo-2,3-dihydro-1H-pyrazol-4-yl)-4-(difluoromethoxy)benzamide] | 5.80 | 7.24 |
| COc1cc(F)c(-c2c(NC(=O)c3ccc(OC(F)F)cc3)c(=O)n(-c3cc(OCC4(C)COC4)cc(C)n3)n2C)c(F)c1 [Example 327, N-(5-(2,6-Difluoro-4-methoxyphenyl)-1-methyl-2-(6-methyl-4-((3-methyloxetan-3-yl)methoxy)pyridin-2-yl)-3-oxo-2,3-dihydro-1H-pyrazol-4-yl)-4-(difluoromethoxy)benzamide] | 7.23 | 7.64 |
| COc1cc(F)c(-c2c(NC(=O)c3ccc(OC(F)F)cc3)c(=O)n(-c3cc(C#N)cc(C)n3)n2C)c(F)c1 [Example 328, N-(2-(4-Cyano-6-methylpyridin-2-yl)-5-(2,6-difluoro-4-methoxyphenyl)-1-methyl-3-oxo-2,3-dihydro-1H-pyrazol-4-yl)-4-(difluoromethoxy)benzamide] | 5.80 | 7.82 |
| COc1cc(OCCCO)nc(-n2c(=O)c(NC(=O)c3ccc(OC(F)F)cc3)c(-c3c(F)cc(OC)cc3F)n2C)c1 [Example 329, N-(5-(2,6-Difluoro-4-methoxyphenyl)-2-(6-(3-hydroxypropoxy)-4-methoxypyridin-2-yl)-1-methyl-3-oxo-2,3-dihydro-1H-pyrazol-4-yl)-4-(difluoromethoxy)benzamide] | < 5.00 | 8.40 |
| COc1cc(F)c(-c2c(NC(=O)c3ccc(OC(F)F)cc3)c(=O)n(-c3cccnc3OC)n2C)c(F)c1 [Example 330, N-(5-(2,6-Difluoro-4-methoxyphenyl)-2-(2-methoxypyridin-3-yl)-1-methyl-3-oxo-2,3-dihydro-1H-pyrazol-4-yl)-4-(difluoromethoxy)benzamide] | < 5.00 | 8.22 |
| COc1cc(F)c(-c2c(NC(=O)c3ccc(OC(F)F)cc3)c(=O)n(-c3cc(C)cc(OCCO)n3)n2C)c(F)c1 [Example 331, N-(5-(2,6-Difluoro-4-methoxyphenyl)-2-(6-(2-hydroxyethoxy)-4-methylpyridin-2-yl)-1-methyl-3-oxo-2,3-dihydro-1H-pyrazol-4-yl)-4-(difluoromethoxy)benzamide] | < 5.00 | 8.52 |
| COc1cc(OCCO)nc(-n2c(=O)c(NC(=O)c3ccc(OC(F)F)cc3)c(-c3c(F)cc(OC)cc3F)n2C)c1 [Example 332, N-(5-(2,6-Difluoro-4-methoxyphenyl)-2-(6-(2-hydroxyethoxy)-4-methoxypyridin-2-yl)-1-methyl-3-oxo-2,3-dihydro-1H-pyrazol-4-yl)-4-(difluoromethoxy)benzamide] | < 5.00 | 8.52 |
| COc1cc(F)c(-c2c(NC(=O)c3ccc(OC(F)F)cc3)c(=O)n(-c3cccc(OCCO)n3)n2C)c(F)c1 [Example 333, N-(5-(2,6-Difluoro-4-methoxyphenyl)-2-(6-(2-hydroxyethoxy)pyridin-2-yl)-1-methyl-3-oxo-2,3-dihydro-1H-pyrazol-4-yl)-4-(difluoromethoxy)benzamide] | 5.89 | 7.85 |
| COc1cc(OCCS(C)(=O)=O)nc(-n2c(=O)c(NC(=O)c3ccc(OC(F)F)cc3)c(-c3c(F)cc(OC)cc3F)n2C)c1 [Example 335, N-(5-(2,6-Difluoro-4-methoxyphenyl)-2-(4-methoxy-6-(2-(methylsulfonyl)ethoxy)pyridin-2-yl)-1-methyl-3-oxo-2,3-dihydro-1H-pyrazol-4-yl)-4-(difluoromethoxy)benzamide] | < 5.00 | 8.52 |
| COc1cc(F)c(-c2c(NC(=O)c3ccc(OC(F)F)cc3)c(=O)n(-c3cc(CO)cc(OCCO)n3)n2C)c(F)c1 [Example 336, N-(5-(2,6-Difluoro-4-methoxyphenyl)-2-(6-(2-hydroxyethoxy)-4-(hydroxymethyl)pyridin-2-yl)-1-methyl-3-oxo-2,3-dihydro-1H-pyrazol-4-yl)-4-(difluoromethoxy)benzamide] | < 5.00 | 7.62 |
| COc1cc(OCC2CCS(=O)(=O)CC2)nc(-n2c(=O)c(NC(=O)c3ccc(OC(F)F)cc3)c(-c3c(F)cc(OC)cc3F)n2C)c1 [Example 337, N-(5-(2,6-Difluoro-4-methoxyphenyl)-2-(6-((1,1-dioxidotetrahydro-2H-thiopyran-4-yl)methoxy)-4-methoxypyridin-2-yl)-1-methyl-3-oxo-2,3-dihydro-1H-pyrazol-4-yl)-4-(difluoromethoxy)benzamide] | < 5.00 | 7.82 |
